# Measurements: patent US6362190B1, “Method for treating inflammatory diseases by administering a thrombin inhibitor” (Merck & Co., Inc., priority 1998, dated 2002)
# Test system: adjuvant-induced arthritis (Mycobacterium butyricum) in female Lewis rats
# Test: Development and severity of adjuvant-induced arthritis in female Lewis rats (paw volumes, radiographic scores)
# Type: in vivo
# Details: for Radiographic total scores of secondary paws compared with vehicle treated rats, in words: day 21, secondary paws; for Radiographic scores, Primary paws / Radiographic scores, Secondary paws / Increase in primary foot volume, Day 21 / Increase in secondary foot volume, Day 21: day 21; for Radiographic scores, Primary paws / Radiographic scores, Secondary paws: total score, maximum 26 per foot, high score = high inflammation, thrombin inhibitor 50 mg/kg/day, Indomethacin 1 mg/kg/day oral; for Increase in primary foot volume, Day 14 / Increase in primary foot volume, Day 21: primary (adjuvant-injected) paw; for Increase in primary foot volume, Day 14 / Increase in primary foot volume, Day 21 / Increase in secondary foot volume, Day 14 / Increase in secondary foot volume, Day 21: oral gavage daily, thrombin inhibitor 50 mg/kg, Indomethacin 1 mg/kg; for Increase in primary foot volume, Day 14: mercury displacement plethysmography; for Increase in secondary foot volume, Day 14 / Increase in secondary foot volume, Day 21: secondary (contralateral, not injected) paw
# Protocol: The thrombin inhibitor 3-(2-phenylethylamino)-6-methyl-1-(2-amino-6-methyl-5-methylene-carboxamidomethylpyridinyl)-2-pyrazinone was evaluated to determine its effect on induced arthritis. Arthritis was induced by injection of female Lewis rats with Mycobacterium butyricum. The effect of the thrombin inhibitor was compared with the effect of Indomethacin and the effect of a vehicle control.
# Fifty 7.5 week old female Lewis rats (body weight 149-174 grams) were included in the study. Forty rats were each injected with an emulsion containing 0.5 mg of Mycobacterium butyricum in 0.1 ml of light mineral oil, and a negative control group of 10 rats was not injected with adjuvant.
# Ten of the rats receiving Mycobacterium butyricum further received Indomethacin by oral gavage at a total daily dose of 1 mg/kg. Ten of the rats receiving Mycobacterium butyricum further received the thrombin inhibitor by oral gavage at a total daily dose of 50 mg/kg. Twenty of the rats receiving Mycobacterium butyricum further received a vehicle control of sterile distilled water.
# Body weights, primary and secondary paw volumes, and lateral radiographs were determined before and at various time points including 21 days following adjuvant injection. The primary paw was injected with the Mycobacterium butyricum while the secondary (contralateral) paw was not injected. Paw volumes were determined by mercury displacement plethysmography. Lateral radiographs were obtained under Ketamine and Xylazine anesthesia.
# Radiographs were made of both hind paws on days 0 and 21 and evaluated for changes in the soft and hard tissues. The following radiographic changes were graded numerically according to severity:increased soft tissue volume (0-4), narrowing or widening of joint spaces ([…]), subchondral erosion (0-3), periosteal reaction (0-4), osteolysis (0-4), subluxation (0-3), and degenerative joint changes (0-3). The maximum possible score for each foot was 26. High scores correspond with high levels of inflammation.
smiles,measurement,setting,value
"COc1ccc2c(c1)c(CC(=O)O)c(C)n2C(=O)c1ccc(Cl)cc1 [Indomethacin, reference compound]","Radiographic total scores of primary paws compared with vehicle treated rats, in words","day 21, primary paws, versus vehicle",significantly less
same,"Radiographic total scores of secondary paws compared with vehicle treated rats, in words",versus vehicle,significantly less
same,"Radiographic scores, Primary paws",,4.6 ± 1.6
same,"Radiographic scores, Secondary paws",,3.5 ± 1.4
same,"Increase in primary foot volume, Day 14",,726 ± 174 µL
same,"Increase in primary foot volume, Day 21",,622 ± 156 µL
same,"Increase in secondary foot volume, Day 14",,246 ± 162 µL
same,"Increase in secondary foot volume, Day 21",,253 ± 138 µL
"Cc1nc(N)ccc1CNC(=O)Cn1c(C)cnc(NCCc2ccccc2)c1=O [Thrombin inhibitor, 3-(2-phenylethylamino)-6-methyl-1-(2-amino-6-methyl-5-methylene-carboxamidomethylpyridinyl)-2-pyrazinone]","Radiographic total scores of secondary paws compared with vehicle treated rats, in words",versus vehicle,significantly less
same,"Radiographic scores, Primary paws",,14.0 ± 3.3
same,"Radiographic scores, Secondary paws",,3.8 ± 3.79
same,"Increase in primary foot volume, Day 14",,1591 ± 318 µL
same,"Increase in primary foot volume, Day 21",,1997 ± 605 µL
same,"Effect on the primary paw (foot volume), in words","primary paw, thrombin inhibitor 50 mg/kg/day oral gavage",insignificant effect
same,"Increase in secondary foot volume, Day 14",,382 ± 312 µL
same,"Increase in secondary foot volume, Day 21",,704 ± 289 µL
same,"Anti-inflammatory effect on the secondary paw (foot volume), in words","secondary paw, thrombin inhibitor 50 mg/kg/day oral gavage",significant anti-inflammatory effect
